In patent publication US7183315B2, “Silver salts of sucrose-octasulphate” (Interalia S.R.L., priority 2001, dated 2007):

Assays:
[1] = tested on: Staphylococcus Aureus ATCC 6538; experiment: Bacterial growth inhibition test by diffusion in agar (seeded by inclusion, 8 mm wells); format: cell-based
Source text: The inhibition of bacterial growth has been, in this case, evaluated on a confluent bacterial culture of Staphylococcus aureus ATCC 6538 obtained on solid medium, according to the seeding method for inclusion. Serial dilutions of the test products, of known Ag titre, have been deposited inside 8 mm diameter wells formed in the medium in direct contact with the bacteria Staphylococcus aureus ATCC 6538. The antibacterial activity of the products under test have been evaluated, after appropriate incubations, by measuring the halos of inhibition around each well (tables 3 and 4).

[2] = tested on: Staphylococcus Aureus ATCC 6538; experiment: Bacterial growth inhibition test in culture broth; format: cell-based; set-up: key to inhibition of S. aureus ATCC 6538 growth / inhibition of S. aureus ATCC 6538: − growth; + inhibition; conditions: for inhibition of S. aureus ATCC 6538: Table 2
Experimental: Serial dilutions of known titre of the two products SOS-Ag and Katoxyn, the latter containing Ag in the form of metallic silver (silver […]® collodial chemical), have been placed directly in contact with the test microorganism (Staphylococcus Aureus ATCC 6538) for incubation in culture broth under agitation. The effect of the substances on cellular growth has been measured by evaluating the absence of turbidity in the culture medium. The anti bacterial activity has been verified by the seeding of 1 ml of culture broth in an […] medium, with observations at 7, 14, 21, 28 days from the beginning of the experiment (tables 1 and 2).

[3] = tested on: Candida albicans; conditions: preservative in cosmetic preparations; cited from earlier work
[4] = tested on: Pseudomonas aeruginosa; conditions: preservative in cosmetic preparations; cited from earlier work
[5] = tested on: Staphylococcus aureus; conditions: preservative in cosmetic preparations; cited from earlier work
[6] = Solubility of the product; format: physicochemical; conditions: product of example 1
[7] = tested on: S. aureus ATCC 6538; experiment: Diffusion method in agar, seeded by inclusion, 8 mm wells, 72 h; format: cell-based, Staphylococcus aureus; conditions: 72 hours at 37° C.
Experimental: (§1) The characterisation of the antibacterial activity has been carried out using the method of diffusion in agar, placing the substances in contact with confluent bacterial cultures on solid medium. The experiments have been carried out according to two distinct methods: 1) wetting sterile cellulose disks, 13 mm in diameter with 100 μl of solutions at serial dilutions of the product of known Ag titre. […] 100 μl of the solutions containing the products at known concentrations of Ag are placed on the base of the wells, and the bacteriocidal activity is observed after 72 hours of incubation at 37° C. against a blank constituted of just the solvent used for the solubilisation of the products.

[8] = Stability in solid state and aqueous solution; format: physicochemical; conditions: obtained according to example 3
[9] = tested on: S. aureus ATCC 6538; experiment: Diffusion method in agar, cellulose disks of 13 mm; format: cell-based, Staphylococcus aureus; conditions: 72 hours at 37° C.
Experimental: as §1

Compound: CC1(C)S[C@@H]2[C@H](NC(=O)[C@H](N)c3ccccc3)C(=O)N2[C@H]1C(=O)O [ampicillin, reference compound]
- Halo of inhibition ([1]; Concentration 5 I.U./ml, positive control): 11 mm
- Halo of inhibition ([1]; Concentration 10 I.U./ml, positive control): 20 mm
- Halo of inhibition ([1]; Concentration 20 I.U./ml, positive control): 39 mm
- inhibition of S. aureus ATCC 6538 growth ([2]; positive control, Table 1, 7 days): +
- inhibition of S. aureus ATCC 6538 growth ([2]; positive control, Table 1, 14 days): +
- inhibition of S. aureus ATCC 6538 growth ([2]; positive control, Table 1, 21 days): +
- inhibition of S. aureus ATCC 6538 growth ([2]; positive control, Table 1, 28 days): +
- inhibition of S. aureus ATCC 6538 ([2]; positive control, 7 days): +
- inhibition of S. aureus ATCC 6538 ([2]; positive control, 14 days): +
- inhibition of S. aureus ATCC 6538 ([2]; positive control, 21 days): +
- inhibition of S. aureus ATCC 6538 ([2]; positive control, 28 days): +

Compound: [Ag] [silver]
- concentration of silver showing activity [3]: 10^−5 M
- concentration of silver showing activity [4]: 10^−5 M
- concentration of silver showing activity [5]: 10^−5 M

Compound: silver salts of sucrose-octasulphate [SOS-Ag]
- Solubility in organic solvents ([6]; organic solvents): particularly insoluable
- Solubility in water ([6]; water): very soluble
- Halo of inhibition ([7]; Ag titre 10^−2 M): 14.5 mm
- Halo of inhibition ([7]; Ag titre 10^−3 M): 14 mm
- Halo of inhibition ([7]; Ag titre 10^−4 M): 0 mm
- Halo of inhibition ([7]; Ag titre 10^−5 M): 0 mm
- stability in aqueous solution ([8]; aqueous solution): good stability
- stability in the solid state ([8]; solid state): good stability
- Halo of inhibition ([9]; Ag titre 10^−2 M): 15.3 mm
- Halo of inhibition ([9]; Ag titre 10^−3 M): 12 mm
- Halo of inhibition ([9]; Ag titre 10^−4 M): 0 mm
- Halo of inhibition ([9]; Ag titre 10^−5 M): 0 mm
- Halo of inhibition ([1]; Ag titre 1 × 10^−3 M, 8 mm wells): 13 mm
- Halo of inhibition ([1]; Ag titre 1 × 10^−4 M, 8 mm wells): 0 mm
- Halo of inhibition ([1]; Ag titre 5 × 10^−4 M, 8 mm wells): 0 mm
- inhibition of S. aureus ATCC 6538 growth ([2]; Ag titre 1 × 10^−2 M, 7 days): +
- inhibition of S. aureus ATCC 6538 growth ([2]; Ag titre 1 × 10^−2 M, 14 days): +
- inhibition of S. aureus ATCC 6538 growth ([2]; Ag titre 1 × 10^−2 M, 21 days): +
- inhibition of S. aureus ATCC 6538 growth ([2]; Ag titre 1 × 10^−2 M, 28 days): +
- inhibition of S. aureus ATCC 6538 growth ([2]; Ag titre 1 × 10^−3 M, 7 days): +
- inhibition of S. aureus ATCC 6538 growth ([2]; Ag titre 1 × 10^−3 M, 14 days): +
- inhibition of S. aureus ATCC 6538 growth ([2]; Ag titre 1 × 10^−3 M, 21 days): +
- inhibition of S. aureus ATCC 6538 growth ([2]; Ag titre 1 × 10^−3 M, 28 days): +
- inhibition of S. aureus ATCC 6538 growth ([2]; Ag titre 1 × 10^−4 M, 7 days): −
- inhibition of S. aureus ATCC 6538 growth ([2]; Ag titre 1 × 10^−4 M, 14 days): −
- inhibition of S. aureus ATCC 6538 growth ([2]; Ag titre 1 × 10^−4 M, 21 days): −
- inhibition of S. aureus ATCC 6538 growth ([2]; Ag titre 1 × 10^−4 M, 28 days): −
- inhibition of S. aureus ATCC 6538 growth ([2]; Ag titre 1 × 10^−5 M, 7 days): −
- inhibition of S. aureus ATCC 6538 growth ([2]; Ag titre 1 × 10^−5 M, 14 days): −
- inhibition of S. aureus ATCC 6538 growth ([2]; Ag titre 1 × 10^−5 M, 21 days): −
- inhibition of S. aureus ATCC 6538 growth ([2]; Ag titre 1 × 10^−5 M, 28 days): −
- inhibition of S. aureus ATCC 6538 growth ([2]; Ag titre 5 × 10^−4 M, 7 days): −
- inhibition of S. aureus ATCC 6538 growth ([2]; Ag titre 5 × 10^−4 M, 14 days): −
- inhibition of S. aureus ATCC 6538 growth ([2]; Ag titre 5 × 10^−4 M, 21 days): −
- inhibition of S. aureus ATCC 6538 growth ([2]; Ag titre 5 × 10^−4 M, 28 days): −
- concentration of Ag at which the product has been effective / active ([2]; S. aureus ATCC 6538, summary of tables 1-4 (culture broth and agar diffusion)): 1 mM
